This note sets out measurements from ChEMBL document CHEMBL3871303, “In vivo and in silico anti-inflammatory mechanism of action of the semisynthetic (-)-cubebin derivatives (-)-hinokinin and (-)-O-benzylcubebin” (2017).

Format in all cases: functional
Experiment [1] concerns Rattus norvegicus. Kind of experiment: Antiinflammatory activity in Wistar rat assessed as inhibition of PGE2-induced paw edema at 40 mg/kg, po administered 30 mins prior to PGE2 treatment measured after 3 hrs.
The subject of experiment [2] is Rattus norvegicus. Description: Antiinflammatory activity in Wistar rat assessed as inhibition of dextran-induced paw edema at 40 mg/kg, po administered 30 mins prior to dextran treatment measured after 3 hrs.
Experiment [3] concerns Rattus norvegicus. Kind of experiment: Antiinflammatory activity in Wistar rat assessed as inhibition of dextran-induced paw edema administered orally 30 mins prior to dextran treatment measured after 3 hrs.
Experiment [4] concerns Rattus norvegicus. Kind of experiment: Antiinflammatory activity in Wistar rat assessed as inhibition of PGE2-induced paw edema at 10 mg/kg, po administered 30 mins prior to PGE2 treatment measured after 3 hrs.

On to `O=C1OC[C@@H](Cc2ccc3c(c2)OCO3)[C@@H]1Cc1ccc2c(c1)OCO2`, for which the figures for the inhibition in vivo at 40 mg/kg in experiment [1] and in experiment [2] were 59.2% and 18.3%, respectively.

`c1ccc(COC2OC[C@@H](Cc3ccc4c(c3)OCO4)[C@@H]2Cc2ccc3c(c2)OCO3)cc1` (stereo partly specified): the inhibition in vivo at 40 mg/kg in experiment [1] worked out at 66%; in experiment [2] it was 3.5%.

As for `CN1CCC(=C2c3ccccc3C=Cc3ccccc32)CC1` [CYPROHEPTADINE], the “inhibition (INH)” value in experiment [3] was determined as 56%.

`COc1ccc2c(c1)c(CC(=O)O)c(C)n2C(=O)c1ccc(Cl)cc1` [INDOMETHACIN]: the inhibition in vivo at 10 mg/kg in experiment [4] came out at 54%.

As usually defined, the inhibition in vivo is the drop in the measured response relative to a control, in per cent.
